Data reported in paper PMC7753975 (Journal of medicinal chemistry, 2015).

Tested on: NCI-60 human tumor cell lines
Assay: NCI-60 five-dose assay, mean graph midpoint
Format: cell-based
Settings: Homo sapiens, read-out: cytotoxicity (GI50, μM) MGM, mean graph midpoint of growth inhibition from 5 dose assay, ranging from 10^−8–10^−4 M

| SMILES | GI50 |
| --- | --- |
| CC[C@@]1(O)C(=O)OCc2c1cc1n(c2=O)Cc2cc3c(CN(C)C)c(O)ccc3nc2-1 [Compound 2, topotecan, reference compound] | 0.0405 ± 0.0187 µM |
| O=C1c2ccccc2-c2c1c1ccc(Cl)cc1c(=O)n2C[C@H](O)CO [Compound 50, (S)-3-Chloro-5,6-dihydro-6-(2,3-dihydroxypropyl)-5,11-dioxo-11H-indeno[1,2-c]isoquinoline] | 1.12 µM |
| O=C1c2ccccc2-c2c1c1ccc(F)cc1c(=O)n2CCCn1ccnc1 [Compound 60, 3-Fluoro-5,6-dihydro-6-(3-(1H-imidazol-1-yl)propyl)-5,11-dioxo-11H-indeno[1,2-c]isoquinoline] | 0.692 µM |
| O=C1c2ccccc2-c2c1c1ccc(I)cc1c(=O)n2CCCn1ccnc1 [Compound 62, 5,6-Dihydro-6-(3-(1H-imidazol-1-yl)propyl)-3-iodo-5,11-dioxo-11H-indeno[1,2-c]isoquinoline] | ≥ 0.944 µM |
| O=C1c2ccccc2-c2c1c1cc(C(F)(F)F)ccc1c(=O)n2CCCn1ccnc1 [Compound 63, 2-(Trifluoromethyl)-5,6-dihydro-6-(3-(1H-imidazol-1-yl)-propyl)-5,11-dioxo-11H-indeno[1,2-c]isoquinoline] | ≥ 0.944 µM |
| O=C1c2ccccc2-c2c1c1ccc(C(F)(F)F)cc1c(=O)n2CCCn1ccnc1 [Compound 64, 3-(Trifluoromethyl)-5,6-dihydro-6-(3-(1H-imidazol-1-yl)-propyl)-5,11-dioxo-11H-indeno[1,2-c]isoquinoline] | 1.07 µM |
| O=C1c2ccccc2-c2c1c1ccc(F)cc1c(=O)n2CCCN1CCOCC1 [Compound 68, 3-Fluoro-5,6-dihydro-6-(3-morpholinopropyl)-5,11-dioxo-11H-indeno[1,2-c]isoquinoline] | 2.75 µM |
| O=C1c2ccccc2-c2c1c1ccc(Cl)cc1c(=O)n2CCCN1CCOCC1 [Compound 69, 3-Chloro-5,6-dihydro-6-(3-morpholinopropyl)-5,11-dioxo-11H-indeno[1,2-c]isoquinoline] | 4.17 µM |

Same assay, conditions: human

| SMILES | GI50 |
| --- | --- |
| O=C1c2ccccc2-c2c1c1ccc(I)cc1c(=O)n2CCCn1ccnc1 [Compound 62, 5,6-Dihydro-6-(3-(1H-imidazol-1-yl)propyl)-3-iodo-5,11-dioxo-11H-indeno[1,2-c]isoquinoline] | 1.62 µM |
